# Test results from ChEMBL document CHEMBL4507263, “Data for DCP probe BAY-474” (2021).
# Activity calls are given as the source filed them. The calls are words filed in the database; no cut-off is given here.
# Experiments:
# [1] = biological target: Gamma-aminobutyric acid type B receptor subunit 1 (Homo sapiens) (UniProt Q9UBS5); test: Inhibition of GABAB1A at compound concentration of 10.0 uM in the Eurofins-Panlabs radioligand binding assay (Eurofins_assay_228610); set-up: ligand concentration 4 nM; settings: Compound concentration 10.0 uM
# [2] = biological target: 5-hydroxytryptamine receptor 2A (Homo sapiens) (UniProt P28223); settings: Compound concentration 10.0 uM
# [3] = biological target: 5-hydroxytryptamine receptor 1B (Homo sapiens) (UniProt P28222); settings: Compound concentration 10.0 uM
# [4] = biological target: Serine/threonine-protein kinase D1 (Homo sapiens) (UniProt Q15139); test: PKCmu (h) Millipore kinase activity assay; settings: Compound concentration 1.0 uM
# [5] = biological target: Serine/threonine-protein kinase PAK 4 (Homo sapiens) (UniProt O96013); test: PAK4 (h) Millipore kinase activity assay; settings: Compound concentration 1.0 uM
# [6] = biological target: Serine/threonine-protein kinase Sgk3 (Homo sapiens) (UniProt Q96BR1); test: SGK3 (h) Millipore kinase activity assay; settings: Compound concentration 1.0 uM
# [7] = biological target: T1, 5-hydroxytryptamine receptor 1A (Homo sapiens) (UniProt P08908); settings: Compound concentration 10.0 uM
# T1 sequence (whole entry): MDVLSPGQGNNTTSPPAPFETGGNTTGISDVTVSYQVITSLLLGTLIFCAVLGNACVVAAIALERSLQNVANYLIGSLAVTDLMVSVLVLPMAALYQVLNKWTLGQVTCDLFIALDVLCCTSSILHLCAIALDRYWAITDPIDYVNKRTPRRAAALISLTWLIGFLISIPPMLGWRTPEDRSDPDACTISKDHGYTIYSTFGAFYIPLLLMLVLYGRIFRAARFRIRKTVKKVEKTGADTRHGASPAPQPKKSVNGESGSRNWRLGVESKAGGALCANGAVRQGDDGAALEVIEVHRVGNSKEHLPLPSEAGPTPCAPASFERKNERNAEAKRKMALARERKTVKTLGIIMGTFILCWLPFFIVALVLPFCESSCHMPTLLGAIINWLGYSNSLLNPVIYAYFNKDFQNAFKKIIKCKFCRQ
# [8] = biological target: Sigma intracellular receptor 2 (Homo sapiens) (UniProt Q5BJF2); settings: Compound concentration 10.0 uM
# MKN-45 = test: Cell proliferation with […] cell line; format: functional; settings: Homo sapiens
# [9] = biological target: Tyrosine-protein kinase Fer (Homo sapiens) (UniProt P16591); test: Fer (h) Millipore kinase activity assay; settings: Compound concentration 1.0 uM
# [10] = biological target: T2, Alpha-1D adrenergic receptor (Homo sapiens) (UniProt P25100); settings: Compound concentration 10.0 uM
# T2 sequence (whole entry): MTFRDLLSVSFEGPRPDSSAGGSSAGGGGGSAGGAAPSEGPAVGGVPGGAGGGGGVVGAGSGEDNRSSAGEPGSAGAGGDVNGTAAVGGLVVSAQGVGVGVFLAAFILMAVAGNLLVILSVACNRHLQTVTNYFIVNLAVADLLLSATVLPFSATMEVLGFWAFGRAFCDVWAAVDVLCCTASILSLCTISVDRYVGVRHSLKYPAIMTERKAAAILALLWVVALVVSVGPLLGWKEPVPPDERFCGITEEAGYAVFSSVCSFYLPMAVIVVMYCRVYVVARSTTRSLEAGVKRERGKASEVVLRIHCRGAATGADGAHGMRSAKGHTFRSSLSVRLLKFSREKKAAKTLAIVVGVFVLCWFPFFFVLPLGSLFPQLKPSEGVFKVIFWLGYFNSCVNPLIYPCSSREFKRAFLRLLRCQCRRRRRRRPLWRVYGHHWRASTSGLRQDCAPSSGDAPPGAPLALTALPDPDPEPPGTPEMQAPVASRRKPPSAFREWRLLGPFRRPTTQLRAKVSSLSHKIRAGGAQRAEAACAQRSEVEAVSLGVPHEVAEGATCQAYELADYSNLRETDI
# [11] = biological target: Alpha-2A adrenergic receptor (Homo sapiens) (UniProt P08913); settings: Compound concentration 10.0 uM
# [12] = biological target: Cyclin-dependent kinase 3 (Homo sapiens) (UniProt Q00526); test: CDK3/cyclinE (h) Millipore kinase activity assay; settings: Compound concentration 1.0 uM
# [13] = biological target: Histamine H2 receptor (Homo sapiens) (UniProt P25021); settings: Compound concentration 10.0 uM
# [14] = biological target: D(2) dopamine receptor (Homo sapiens) (UniProt P14416); settings: Compound concentration 10.0 uM
# [15] = test system: Phosphatidylinositol 4,5-bisphosphate 3-kinase catalytic subunit alpha isoform (Homo sapiens), P42336 [H1047L]; settings: Compound concentration 1000.0 nM
# [16] = biological target: Serine/threonine-protein kinase STK11 (Homo sapiens) (UniProt Q15831); settings: Compound concentration 1000.0 nM
# [17] = biological target: Ribosomal protein S6 kinase alpha-2 (Homo sapiens) (UniProt Q15349); settings: Compound concentration 1000.0 nM
# [18] = biological target: Serine/threonine-protein kinase TBK1 (Homo sapiens) (UniProt Q9UHD2); settings: Compound concentration 1000.0 nM
# [19] = biological target: Mitogen-activated protein kinase 13 (Homo sapiens) (UniProt O15264); settings: Compound concentration 1000.0 nM
# [20] = biological target: Insulin-like growth factor 1 receptor (Homo sapiens) (UniProt P08069); settings: Compound concentration 1000.0 nM
# [21] = biological target: G protein-coupled receptor kinase 3 (Homo sapiens) (UniProt P35626); settings: Compound concentration 1000.0 nM
# [22] = biological target: Casein kinase I isoform alpha-like (Homo sapiens) (UniProt Q8N752); settings: Compound concentration 1000.0 nM
# [23] = biological target: Serine/threonine-protein kinase 25 (Homo sapiens) (UniProt O00506); settings: Compound concentration 1000.0 nM
# [24] = biological target: Serine/threonine-protein kinase PAK 5 (Homo sapiens) (UniProt Q9P286); settings: Compound concentration 1000.0 nM
# [25] = test system: Receptor-type tyrosine-protein kinase FLT3 (Homo sapiens), P36888 [UNDEFINED MUTATION]; settings: Compound concentration 1000.0 nM
# [26] = test system: Phosphatidylinositol 4,5-bisphosphate 3-kinase catalytic subunit alpha isoform (Homo sapiens), P42336 [E545K]; settings: Compound concentration 1000.0 nM
# [27] = test system: Tyrosine-protein kinase ABL1 (Homo sapiens), P00519 [Y253F]; settings: Compound concentration 1000.0 nM
# [28] = biological target: Tyrosine-protein kinase JAK3 (Homo sapiens) (UniProt P52333); settings: Compound concentration 1000.0 nM
# [29] = biological target: Serine/threonine-protein kinase MRCK gamma (Homo sapiens) (UniProt Q6DT37); settings: Compound concentration 1000.0 nM
# [30] = biological target: Protein-tyrosine kinase 2-beta (Homo sapiens) (UniProt Q14289); settings: Compound concentration 1000.0 nM
# [31] = biological target: Serine/threonine-protein kinase D3 (Homo sapiens) (UniProt O94806); settings: Compound concentration 1000.0 nM
# 5-hydroxytryptamine receptor 1B (Homo sapiens), sequence (P28222 whole entry): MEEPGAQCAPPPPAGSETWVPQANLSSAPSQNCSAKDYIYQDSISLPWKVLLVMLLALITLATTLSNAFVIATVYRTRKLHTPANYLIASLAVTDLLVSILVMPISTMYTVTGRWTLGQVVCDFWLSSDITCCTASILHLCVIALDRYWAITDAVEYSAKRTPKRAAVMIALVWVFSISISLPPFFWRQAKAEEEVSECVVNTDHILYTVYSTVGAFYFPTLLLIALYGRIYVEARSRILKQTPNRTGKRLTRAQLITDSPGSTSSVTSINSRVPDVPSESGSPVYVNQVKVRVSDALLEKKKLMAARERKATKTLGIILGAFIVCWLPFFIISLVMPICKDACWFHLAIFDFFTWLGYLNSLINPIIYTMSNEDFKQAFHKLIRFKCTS
# D(2) dopamine receptor (Homo sapiens), sequence (P14416 whole entry, canonical isoform): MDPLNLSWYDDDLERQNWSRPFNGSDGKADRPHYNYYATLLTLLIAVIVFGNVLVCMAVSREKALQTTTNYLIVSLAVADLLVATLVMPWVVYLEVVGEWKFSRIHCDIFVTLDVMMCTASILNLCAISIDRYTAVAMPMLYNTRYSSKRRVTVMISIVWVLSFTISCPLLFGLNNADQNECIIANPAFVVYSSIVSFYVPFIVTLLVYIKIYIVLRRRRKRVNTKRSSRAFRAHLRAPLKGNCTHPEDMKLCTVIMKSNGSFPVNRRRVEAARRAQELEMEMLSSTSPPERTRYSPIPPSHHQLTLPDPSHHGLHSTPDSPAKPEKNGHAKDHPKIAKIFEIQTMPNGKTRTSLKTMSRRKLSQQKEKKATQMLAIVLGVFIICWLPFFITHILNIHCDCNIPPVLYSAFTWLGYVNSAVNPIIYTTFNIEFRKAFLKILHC
# Histamine H2 receptor (Homo sapiens), sequence (P25021 whole entry): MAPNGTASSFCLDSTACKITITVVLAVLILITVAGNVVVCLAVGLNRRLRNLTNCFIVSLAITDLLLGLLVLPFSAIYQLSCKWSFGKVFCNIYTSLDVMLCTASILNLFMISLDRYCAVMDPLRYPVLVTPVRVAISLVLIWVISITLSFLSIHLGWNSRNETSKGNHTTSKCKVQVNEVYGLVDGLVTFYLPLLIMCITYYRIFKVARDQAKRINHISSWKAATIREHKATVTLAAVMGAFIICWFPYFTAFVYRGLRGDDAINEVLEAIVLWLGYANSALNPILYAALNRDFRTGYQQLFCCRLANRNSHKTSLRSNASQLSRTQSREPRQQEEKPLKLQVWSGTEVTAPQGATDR
# Alpha-2A adrenergic receptor (Homo sapiens), sequence (P08913 whole entry): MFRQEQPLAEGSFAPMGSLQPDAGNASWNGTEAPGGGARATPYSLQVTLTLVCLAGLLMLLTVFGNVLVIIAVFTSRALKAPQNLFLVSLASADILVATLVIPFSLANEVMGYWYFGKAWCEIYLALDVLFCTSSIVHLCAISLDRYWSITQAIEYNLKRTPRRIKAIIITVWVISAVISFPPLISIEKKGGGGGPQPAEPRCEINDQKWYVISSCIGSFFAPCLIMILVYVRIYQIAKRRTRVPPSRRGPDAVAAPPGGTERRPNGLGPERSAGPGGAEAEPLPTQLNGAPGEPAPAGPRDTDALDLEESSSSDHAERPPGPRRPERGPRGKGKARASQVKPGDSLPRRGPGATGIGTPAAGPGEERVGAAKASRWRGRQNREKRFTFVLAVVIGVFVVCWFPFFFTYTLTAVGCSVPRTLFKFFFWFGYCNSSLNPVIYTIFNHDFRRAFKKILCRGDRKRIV
# Sigma intracellular receptor 2 (Homo sapiens), sequence (Q5BJF2 whole entry): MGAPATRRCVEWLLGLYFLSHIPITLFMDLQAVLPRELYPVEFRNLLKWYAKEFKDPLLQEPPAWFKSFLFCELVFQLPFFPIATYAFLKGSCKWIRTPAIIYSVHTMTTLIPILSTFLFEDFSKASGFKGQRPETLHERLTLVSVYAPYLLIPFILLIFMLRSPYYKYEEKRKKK
# 5-hydroxytryptamine receptor 2A (Homo sapiens), sequence (P28223 whole entry): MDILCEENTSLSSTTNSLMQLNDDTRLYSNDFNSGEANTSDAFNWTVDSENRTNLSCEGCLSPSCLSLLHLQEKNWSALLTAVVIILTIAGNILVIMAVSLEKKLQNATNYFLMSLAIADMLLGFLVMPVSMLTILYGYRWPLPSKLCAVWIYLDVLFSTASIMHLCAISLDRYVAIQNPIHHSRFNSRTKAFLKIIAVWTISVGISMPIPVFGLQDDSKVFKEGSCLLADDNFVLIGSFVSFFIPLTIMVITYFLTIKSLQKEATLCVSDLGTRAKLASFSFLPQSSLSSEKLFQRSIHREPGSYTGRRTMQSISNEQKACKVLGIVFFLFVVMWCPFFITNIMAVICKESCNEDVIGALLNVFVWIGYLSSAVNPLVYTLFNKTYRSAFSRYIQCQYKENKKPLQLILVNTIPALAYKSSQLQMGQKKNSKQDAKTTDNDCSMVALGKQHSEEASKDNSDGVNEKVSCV
# Phosphatidylinositol 4,5-bisphosphate 3-kinase catalytic subunit alpha isoform (Homo sapiens), P42336 [E545K], sequence (P42336 whole entry E545K, canonical isoform): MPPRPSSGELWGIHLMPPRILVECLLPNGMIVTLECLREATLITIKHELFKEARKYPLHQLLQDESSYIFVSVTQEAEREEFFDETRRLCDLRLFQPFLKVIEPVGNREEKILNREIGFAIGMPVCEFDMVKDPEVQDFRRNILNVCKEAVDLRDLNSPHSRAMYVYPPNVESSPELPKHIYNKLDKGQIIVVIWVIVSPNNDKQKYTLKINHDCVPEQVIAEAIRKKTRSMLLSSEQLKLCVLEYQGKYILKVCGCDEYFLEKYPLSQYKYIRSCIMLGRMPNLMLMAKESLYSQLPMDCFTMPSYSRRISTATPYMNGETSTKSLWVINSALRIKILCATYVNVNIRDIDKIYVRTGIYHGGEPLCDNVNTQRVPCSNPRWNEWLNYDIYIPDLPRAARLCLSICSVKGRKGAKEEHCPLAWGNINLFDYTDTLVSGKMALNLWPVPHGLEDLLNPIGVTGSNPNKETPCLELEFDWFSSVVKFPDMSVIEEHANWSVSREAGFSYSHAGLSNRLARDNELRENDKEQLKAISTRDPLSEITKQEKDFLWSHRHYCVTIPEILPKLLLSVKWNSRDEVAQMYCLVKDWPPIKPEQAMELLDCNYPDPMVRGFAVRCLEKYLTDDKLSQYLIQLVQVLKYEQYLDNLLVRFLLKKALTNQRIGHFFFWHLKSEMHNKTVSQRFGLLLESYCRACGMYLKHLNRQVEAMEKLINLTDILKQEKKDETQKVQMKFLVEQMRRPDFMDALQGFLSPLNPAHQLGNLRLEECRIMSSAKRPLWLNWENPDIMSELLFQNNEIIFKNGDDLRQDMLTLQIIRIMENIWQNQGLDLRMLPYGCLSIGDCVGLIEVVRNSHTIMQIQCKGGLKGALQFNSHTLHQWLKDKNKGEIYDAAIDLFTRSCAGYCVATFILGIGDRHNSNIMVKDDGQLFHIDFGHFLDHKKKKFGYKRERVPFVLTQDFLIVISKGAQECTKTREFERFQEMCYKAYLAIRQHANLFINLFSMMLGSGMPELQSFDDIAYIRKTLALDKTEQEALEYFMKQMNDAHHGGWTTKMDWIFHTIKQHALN
# Tyrosine-protein kinase JAK3 (Homo sapiens), sequence (P52333 whole entry): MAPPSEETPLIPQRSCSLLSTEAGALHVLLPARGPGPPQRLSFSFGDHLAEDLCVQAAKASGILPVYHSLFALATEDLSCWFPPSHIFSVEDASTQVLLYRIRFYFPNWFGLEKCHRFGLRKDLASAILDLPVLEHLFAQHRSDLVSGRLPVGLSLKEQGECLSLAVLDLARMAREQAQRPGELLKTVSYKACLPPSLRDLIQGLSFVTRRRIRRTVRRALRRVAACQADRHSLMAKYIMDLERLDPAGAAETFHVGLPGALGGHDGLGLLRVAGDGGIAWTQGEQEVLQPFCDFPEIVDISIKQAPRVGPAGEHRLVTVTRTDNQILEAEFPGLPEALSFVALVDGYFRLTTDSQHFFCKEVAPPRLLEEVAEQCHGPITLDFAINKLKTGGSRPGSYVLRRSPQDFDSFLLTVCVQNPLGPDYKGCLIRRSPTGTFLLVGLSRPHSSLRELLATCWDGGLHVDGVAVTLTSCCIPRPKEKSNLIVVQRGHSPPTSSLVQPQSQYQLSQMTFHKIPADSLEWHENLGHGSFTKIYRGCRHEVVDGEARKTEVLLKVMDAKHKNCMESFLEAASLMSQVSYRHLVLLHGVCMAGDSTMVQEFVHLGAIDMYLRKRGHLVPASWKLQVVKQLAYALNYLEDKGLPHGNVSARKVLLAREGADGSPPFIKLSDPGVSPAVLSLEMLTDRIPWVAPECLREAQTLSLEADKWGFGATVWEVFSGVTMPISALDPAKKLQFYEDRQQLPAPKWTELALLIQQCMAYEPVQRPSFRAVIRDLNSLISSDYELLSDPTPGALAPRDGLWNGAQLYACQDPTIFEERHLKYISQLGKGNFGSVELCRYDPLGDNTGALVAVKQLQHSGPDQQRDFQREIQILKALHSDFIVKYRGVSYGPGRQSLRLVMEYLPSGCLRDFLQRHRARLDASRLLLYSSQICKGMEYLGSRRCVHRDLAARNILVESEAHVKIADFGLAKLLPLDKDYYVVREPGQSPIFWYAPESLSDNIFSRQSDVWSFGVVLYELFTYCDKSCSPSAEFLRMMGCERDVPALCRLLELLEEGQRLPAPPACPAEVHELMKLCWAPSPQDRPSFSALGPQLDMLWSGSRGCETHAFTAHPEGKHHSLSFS
# Serine/threonine-protein kinase Sgk3 (Homo sapiens), sequence (Q96BR1 whole entry): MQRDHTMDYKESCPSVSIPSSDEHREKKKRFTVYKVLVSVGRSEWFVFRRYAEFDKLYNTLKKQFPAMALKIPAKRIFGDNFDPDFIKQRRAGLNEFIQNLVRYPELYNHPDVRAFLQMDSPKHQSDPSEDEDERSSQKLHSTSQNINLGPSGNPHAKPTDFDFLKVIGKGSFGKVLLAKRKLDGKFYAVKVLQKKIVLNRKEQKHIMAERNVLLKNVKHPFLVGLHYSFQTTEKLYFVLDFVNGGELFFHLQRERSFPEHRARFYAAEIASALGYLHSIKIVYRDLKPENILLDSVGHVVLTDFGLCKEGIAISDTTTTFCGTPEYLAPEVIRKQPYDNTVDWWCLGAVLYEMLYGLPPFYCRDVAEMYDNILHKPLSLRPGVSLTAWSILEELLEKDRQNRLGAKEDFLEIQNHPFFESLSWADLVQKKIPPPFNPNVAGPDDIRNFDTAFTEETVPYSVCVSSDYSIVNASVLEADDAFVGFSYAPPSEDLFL
smiles,measurement,setting,value
CC1=C(C#N)C(c2ccc3[nH]nc(C)c3c2)C(C#N)=C(C)N1 [BAY-474],inhibition,[1],0%
same,inhibition,[2],8.75%
same,inhibition,[3],0.48%
same,inhibition,[4],15%
same,inhibition,[5],3%
same,inhibition,[6],-2%
same,inhibition,[7],-5.32%
same,inhibition,[8],23.9%
same,IC90,MKN-45,24 nM (active)
same,inhibition,[9],22%
same,inhibition,[10],2.5%
same,inhibition,[11],-3.48%
same,inhibition,[12],-4%
same,inhibition,[13],12.6%
same,inhibition,[14],-7.07%
CC1=C(C#N)[C@@H](c2ccc3[nH]nc(C)c3c2)C(C#N)=C(c2ccc(Cl)cc2)N1 [BAY-827],residual activity,[15],100%
same,inhibition,[2],5.76%
same,residual activity,[16],100%
same,residual activity,[17],85.4%
same,inhibition,[3],17.2%
same,residual activity,[18],58.7%
same,residual activity,[19],100%
same,residual activity,[20],100%
same,residual activity,[21],85.3%
same,residual activity,[22],100%
same,residual activity,[23],100%
same,inhibition,[7],2.67%
same,residual activity,[24],100%
same,inhibition,[8],23.4%
same,residual activity,[25],100%
same,residual activity,[26],74.9%
same,residual activity,[27],100%
same,inhibition,[10],7.74%
same,inhibition,[11],7.83%
same,residual activity,[28],100%
same,residual activity,[29],93.6%
same,inhibition,[13],14.1%
same,residual activity,[30],100%
same,residual activity,[31],100%
same,inhibition,[14],10.6%
